Results: ChEMBL document CHEMBL5230110, “FabI (enoyl acyl carrier protein reductase) - A potential broad spectrum therapeutic target and its inhibitors” (Eur J Med Chem, 2020)
Values after ≈ are worked out from the molar mass of the structure shown.

What was measured:
[1] = Inhibition of Bacillus anthracis enoyl ACP reductase assessed as inhibition of bacterial growth
Bacillus anthracis = experiment: Antibacterial activity against Bacillus anthracis assessed as reduction in bacterial growth measured after 24 hrs by broth microdilution method; assay type: functional
Staphylococcus aureus [2] = experiment: Antibacterial activity against methicillin resistant Staphylococcus aureus assessed as reduction in bacterial growth incubated for 12 hrs by microdilution method; assay type: functional
Staphylococcus aureus [3] = experiment: Bactericidal activity against methicillin-resistant Staphylococcus aureus measured after 24 hrs by sub-culturing; assay type: functional
Staphylococcus aureus [4] = experiment: Bactericidal activity against methicillin-sensitive Staphylococcus aureus measured after 24 hrs by sub-culturing; assay type: functional
HeLa = experiment: Cytotoxicity against human HeLa cells assessed as inhibition of cell growth incubated for 48 hrs by CCK8 assay; assay type: functional, cell-based
[5] = Cytotoxicity against mouse MH-S cells; assay type: functional, cell-based
[6] = biological target: T1, Enoyl-[acyl-carrier-protein] reductase [NADH] FabI (Escherichia coli K-12, UniProt P0AEK4); experiment: Inhibition of Escherichia coli FabI in the presence of NADH using crotonyl CoA as substrate by measuring NADH consumption rate
T1 sequence (P0AEK4 whole entry): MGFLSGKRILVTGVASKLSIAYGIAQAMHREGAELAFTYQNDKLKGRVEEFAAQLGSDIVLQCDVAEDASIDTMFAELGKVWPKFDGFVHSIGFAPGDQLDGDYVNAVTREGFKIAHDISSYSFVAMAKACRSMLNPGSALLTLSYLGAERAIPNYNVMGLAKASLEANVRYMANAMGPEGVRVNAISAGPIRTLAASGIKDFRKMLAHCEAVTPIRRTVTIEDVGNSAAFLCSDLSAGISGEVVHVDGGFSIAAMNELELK

Staphylococcus aureus [7] = experiment: Antibacterial activity against methicillin-susceptible Staphylococcus aureus assessed as reduction in bacterial growth; assay type: functional
Staphylococcus aureus [8] = experiment: Antibacterial activity in Swiss albino mouse model infected with Methicillin-resistant Staphylococcus aureus NRS 382 assessed as reduction in bacterial growth; assay type: functional
Staphylococcus aureus [9] = experiment: Antibacterial activity in Swiss albino mouse model infected with Methicillin- sensitive Staphylococcus aureus ATCC 29213 assessed as reduction in bacterial growth; assay type: functional
[10] = biological target: T1, Enoyl-[acyl-carrier-protein] reductase [NADH] FabI; experiment: Inhibition of Escherichia coli DH5alpha FabI in the presence of NADH using crotonyl CoA as substrate by measuring NADH consumption rate
[11] = biological target: T2, Enoyl-[acyl-carrier-protein] reductase [NADPH] FabI (Staphylococcus aureus, UniProt Q6GI75); experiment: Inhibition of Staphylococcus aureus FabI in the presence of NADH using crotonyl CoA as substrate by measuring NADH consumption rate
T2 sequence (Q6GI75 whole entry): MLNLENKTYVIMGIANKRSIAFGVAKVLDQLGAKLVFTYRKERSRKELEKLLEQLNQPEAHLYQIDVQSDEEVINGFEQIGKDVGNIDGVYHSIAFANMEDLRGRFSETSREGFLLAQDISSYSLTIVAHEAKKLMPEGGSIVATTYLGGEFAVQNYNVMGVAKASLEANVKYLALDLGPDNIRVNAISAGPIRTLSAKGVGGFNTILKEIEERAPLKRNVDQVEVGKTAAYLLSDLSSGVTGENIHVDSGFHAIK

[12] = biological target: T3, Enoyl-[acyl-carrier-protein] reductase [NADH] FabI (Haemophilus influenzae (strain ATCC 51907 / DSM 11121 / KW20 / Rd), UniProt P44432); experiment: Inhibition of Haemophilus influenzae ATCC 51907 FabI assessed as by measuring NADH consumption rate
T3 sequence (P44432 whole entry): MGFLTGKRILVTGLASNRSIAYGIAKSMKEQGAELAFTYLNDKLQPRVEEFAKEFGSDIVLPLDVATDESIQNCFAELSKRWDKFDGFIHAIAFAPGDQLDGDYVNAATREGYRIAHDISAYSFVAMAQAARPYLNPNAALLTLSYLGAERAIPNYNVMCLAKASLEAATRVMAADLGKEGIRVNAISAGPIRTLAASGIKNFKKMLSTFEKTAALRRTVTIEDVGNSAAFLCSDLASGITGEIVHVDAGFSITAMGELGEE

[13] = test system: Mycobacterium tuberculosis; experiment: Antimycobacterial activity against Mycobacterium tuberculosis H37Rv assessed as reduction in bacterial growth incubated for 7 days by dye based assay; assay type: functional; conditions: 168 h, time 7 day
[14] = test system: Staphylococcus epidermidis; experiment: Antibacterial activity against Methicillin-resistant Staphylococcus epidermidis ATCC 35984 assessed as reduction in bacterial growth; assay type: functional
Staphylococcus aureus [15] = experiment: In vivo antibacterial activity against methicillin-resistant Staphylococcus aureus infected in murine assessed as reduction in bacterial burden; assay type: functional
[16] = test system: Mycobacterium tuberculosis; experiment: Antimycobacterial activity against Mycobacterium tuberculosis ATCC 25618 extracellular forms assessed as inhibition of microbial growth; assay type: functional
Staphylococcus aureus [17] = experiment: Antibacterial activity against methicillin-sensitive Staphylococcus aureus assessed as reduction in bacterial growth incubated for 12 hrs by microdilution method; assay type: functional
[18] = test system: Mycobacterium tuberculosis; experiment: Antibacterial activity against Mycobacterium tuberculosis assessed as inhibition of […]; assay type: functional
Staphylococcus aureus [19] = experiment: Antibacterial activity against Staphylococcus aureus assessed as inhibition of bacterial growth measured after 24 hrs by micro-dilution broth method; assay type: functional
Escherichia coli [20] = experiment: Antibacterial activity against Escherichia coli assessed as inhibition of bacterial growth measured after 24 hrs by micro-dilution broth method; assay type: functional
Acinetobacter baumannii [21] = experiment: Antibacterial activity against Acinetobacter baumannii W41979 assessed as inhibition of bacterial growth measured after 24 hrs by micro-dilution broth method; assay type: functional
Klebsiella pneumoniae [22] = experiment: Antibacterial activity against Klebsiella pneumoniae BAA-1705 assessed as inhibition of bacterial growth measured after 24 hrs by micro-dilution broth method; assay type: functional
Enterobacter cloacae = experiment: Antibacterial activity against Enterobacter cloacae assessed as inhibition of bacterial growth measured after 24 hrs by micro-dilution broth method; assay type: functional
Pseudomonas aeruginosa = experiment: Antibacterial activity against Pseudomonas aeruginosa assessed as bacterial growth inhibition measured after 24 hrs by micr-dilution broth method; assay type: functional
Staphylococcus aureus [23] = experiment: Antibacterial activity against methicillin-resistant Staphylococcus aureus ATCC 4330 assessed as reduction in bacterial growth; assay type: functional
Staphylococcus aureus [24] = experiment: Antibacterial activity against Methicillin-sensitive Staphylococcus aureus ATCC 4330 assessed as reduction in bacterial growth; assay type: functional
Staphylococcus aureus [25] = experiment: Antibacterial activity against Staphylococcus aureus ATCC 29213 assessed as bacterial growth inhibition incubated for 24 hrs by broth dilution method; assay type: functional
Escherichia coli [26] = experiment: Antibacterial activity against Escherichia coli BAA 2340 assessed as reduction in microbial growth inhibition; assay type: functional
Klebsiella pneumoniae [27] = experiment: Antibacterial activity against Klebsiella pneumoniae BAA-1705; assay type: functional
Acinetobacter baumannii [28] = experiment: Antibacterial activity against Acinetobacter baumannii W41979; assay type: functional

With `CCCc1ccc(Oc2ccc([N+](=O)[O-])cc2Cl)c(O)c1` the IC50 [1] was 500 nM, the MIC (Bacillus anthracis) was 1.9 µg/mL (≈ 6.17 µM) and the MIC (Staphylococcus aureus [2]) was 0.3 µg/mL (≈ 0.975 µM). For the same compound, the MBC (Staphylococcus aureus [3]) was 1.2 µg/mL (≈ 3.9 µM), the MBC (Staphylococcus aureus [4]) was 2.9 µg/mL (≈ 9.42 µM) and the EC50 (HeLa) was 41.1 µg/mL (≈ 134 µM). It also gave an EC50 [5] of 22.6 µg/mL (≈ 73.4 µM).
With `CCc1cc(O)c(Oc2ccc(C(N)=O)cc2F)cc1F` the IC50 [6] was 58 nM, the MIC90 (Staphylococcus aureus [2]) was 0.12 µg/mL (≈ 0.409 µM) and the MIC90 (Staphylococcus aureus [7]) was 0.03 µg/mL (≈ 0.102 µM). The ED50 (Staphylococcus aureus [8]) was 19.3 mg/kg/day, the ED50 (Staphylococcus aureus [9]) was 40 mg/kg/day and the IC50 [10] was 58 nM.
In the case of `Cc1c(CN(C)C(=O)/C=C/c2cnc3c(c2)CCC(=O)N3)c2ccccc2n1C`, the IC50 [11] is reported as 130 nM and the IC50 [12] is reported as 390 nM.
With `Cc1csc(C(C)(O)c2nnc(Nc3ccn(Cc4c(F)cccc4F)n3)s2)n1` (stereo not given) the MIC [13] was 0.2 µM (≈ 0.0869 µg/mL).
`Cc1c(C2CN(C(=O)/C=C/c3cnc4c(c3)CCC(=O)N4)C2)oc2ccccc12` gave an MIC [14] of 0.5 µg/mL (≈ 1.29 µM) and an ED50 (Staphylococcus aureus [15]) of 0.9 mg/kg.
Work on `CC1(C)CCC(Cc2cc(O)c(-c3ccccc3)c(=O)[nH]2)CC1` yielded an MIC [16] of 0.05 µM.
Work on `O=[N+]([O-])c1ccc(Oc2ccc(Cl)cc2O)c(Cl)c1` yielded an IC50 [1] of 300 nM, an MIC (Bacillus anthracis) of less than 0.1 µg/mL and an MIC (Staphylococcus aureus [2]) of 0.3 µg/mL (≈ 1 µM). It also gave an MBC (Staphylococcus aureus [3]) of 0.5 µg/mL (≈ 1.67 µM), an MIC (Staphylococcus aureus [17]) of 0.1 µg/mL (≈ 0.333 µM) and an EC50 (HeLa) of 29.3 µg/mL (≈ 97.6 µM). It also gave an EC50 [5] of 9.9 µg/mL (≈ 33 µM).
For `OB1c2ccccc2N=C(S)N1c1cccnc1`, the MIC [18] was 8 µg/mL (≈ 31.4 µM).
With `Cc1cc(=O)n(C)c2c3c4c(cc12)c(C)cc(=O)n4C(CN)CO3` (stereo not given) the MIC (Staphylococcus aureus [19]) was 0.05 µg/mL (≈ 0.154 µM), the MIC (Escherichia coli [20]) was 0.5 µg/mL (≈ 1.54 µM) and the MIC (Acinetobacter baumannii [21]) was 2 µg/mL (≈ 6.15 µM). The MIC (Klebsiella pneumoniae [22]) was 1 µg/mL (≈ 3.07 µM), the MIC (Enterobacter cloacae) was 0.5 µg/mL (≈ 1.54 µM) and the MIC (Pseudomonas aeruginosa) was greater than 16 µg/mL.
Work on `Cc1c(CN(C)C(=O)/C=C/c2cnc3c(c2)C(C)(C)C(=O)N3)oc2ccccc12` yielded an MIC (Staphylococcus aureus [23]) of 0.015 µg/mL (≈ 0.0385 µM) and an MIC (Staphylococcus aureus [24]) of 0.015 µg/mL (≈ 0.0385 µM).
In the case of `Cc1cc(=O)n(C)c2c3c4c(cc12)c(C)cc(=O)n4CCO3`, the MIC (Staphylococcus aureus [19]) is reported as 0.06 µg/mL (≈ 0.202 µM), the MIC (Escherichia coli [20]) is reported as greater than 32 µg/mL and the MIC (Acinetobacter baumannii [21]) is reported as 16 µg/mL (≈ 54 µM). For the same compound, the MIC (Klebsiella pneumoniae [22]) was greater than 32 µg/mL, the MIC (Enterobacter cloacae) was greater than 32 µg/mL and the MIC (Pseudomonas aeruginosa) was greater than 32 µg/mL.
Compound `Cc1c(CN(C)C(=O)/C=C/c2cnc3c(c2)CC(N)C(=O)N3)oc2ccccc12.Cl` (stereo not given) has an MIC (Staphylococcus aureus [25]) of 0.031 µg/mL, an MIC (Escherichia coli [26]) of 4 µg/mL and an MIC (Klebsiella pneumoniae [27]) of 8 µg/mL. For the same compound, the MIC (Acinetobacter baumannii [28]) was 4 µg/mL.
